In ChEMBL document CHEMBL4385651, “Identification and characterization of the first fragment hits for SETDB1 Tudor domain” (Bioorg Med Chem, 2019):
Activity calls are given as the source filed them. No cut-off for these calls is given here. Where a SMILES comes first, the peptide text is derived from it. [ ]: non-standard residue; d: D form. The star is where a group is joined. X1 = CC(=O)NCc1ccccc1-n1c(C)nnc1CN*; Lys(Me2) = CN(C)CCCC[C@H](N)C(=O)O

Columns and labels:
[1] = target: T1, Histone-lysine N-methyltransferase SETDB1 (Homo sapiens, UniProt Q15047); assay: Binding affinity to N-terminally biotinylated human SETDB1 Tudor domain (197 to 403 residues) expressed in Escherichia coli BL21(DE3)-pRARE2 cells by SPR analysis
[2] = target: T1, Histone-lysine N-methyltransferase SETDB1; assay: Binding affinity to N-terminal His6-tagged human SETDB1 Tudor domain (197 to 403 residues) expressed in Escherichia coli BL21(DE3)-pRARE2 cells assessed as induction of HSQC shift at 5 mM by 1H-15 N HSQC-TROSY NMR spectroscopy
[3] = target: T1, Histone-lysine N-methyltransferase SETDB1; assay: Binding affinity to N-terminal His6-tagged human SETDB1 Tudor domain (197 to 403 residues) expressed in Escherichia coli BL21(DE3)-pRARE2 cells by ITC assay
[4] = target: T1, Histone-lysine N-methyltransferase SETDB1; assay: Binding affinity to N-terminal His6-tagged human SETDB1 Tudor domain (197 to 403 residues) expressed in Escherichia coli BL21(DE3)-pRARE2 cells assessed as induction of HSQC shift at 10 mM by 1H-15 N HSQC-TROSY NMR spectroscopy

| SMILES | Kd [1] [mM] | Activity [2] | Kd [3] [mM] | Activity [4] [ppm] |
| --- | --- | --- | --- | --- |
| CC(=O)NCc1cc(C#N)ccc1-n1c(C)nnc1C | 10 |  |  |  |
| CC(=O)NCc1cc(C)ccc1-n1c(C)nnc1C | 7.7 |  |  |  |
| CC(=O)NCc1ccccc1-n1c(C)nnc1CNC(=O)CNC(=O)[C@@H](NC(=O)[C@H](CO)NC(=O)[C@@H](N)CCCCN(C)C)[C@@H](C)O (H-[Lys(Me2)]STG-X1) | 1.27 | Active |  |  |
| CNC(=O)NCc1ccccc1-n1c(C)nnc1C |  | inactive |  |  |
| CC(=O)NCc1cc(Cl)ccc1-n1c(C)nnc1C | 2.5 |  |  |  |
| CC(=O)NCc1cc(Br)ccc1-n1c(C)nnc1C | 2.7 |  |  |  |
| Cc1nnc2n1-c1ccccc1COC2 |  | Active |  |  |
| Cc1nnc(C)n1-c1ccccc1CNS(C)(=O)=O | 4 to 17 | Active | 4 to 17 |  |
| Cc1nnc(C)n1-c1ccccc1C(=O)O |  | inactive |  |  |
| CC(C)(C)NC(=O)[C@@H]1Cc2ccccc2CN1 |  |  |  | > 0.2 |
| CC(=O)NCc1ccccc1-n1c(C)nnc1C | 3.5 | Active | 3.5 |  |
